# In ChEMBL document CHEMBL1157845, “Structure-activity relationship of new anti-tuberculosis agents derived from oxazoline and oxazole benzyl esters” (Eur J Med Chem, 2010):
# The source made the active and inactive calls.
# What was measured:
# [1] = system: Mycobacterium tuberculosis; experiment: Antimycobacterial activity against Mycobacterium tuberculosis H37Rv ATCC 27294 in GAST medium after 1 week by microplate alamar blue assay; format: functional; conditions: H37Rv ATCC 27294, 168 h
# [2] = system: Vero; experiment: Cytotoxicity against african green monkey Vero cells by colorimetric assay; format: cell-based; conditions: Chlorocebus sabaeus
# [3] = system: Mycobacterium tuberculosis; experiment: Antimycobacterial activity against Mycobacterium tuberculosis H37Rv ATCC 27294 in GAS medium after 1 week by microplate alamar blue assay; format: functional; conditions: H37Rv ATCC 27294, 168 h
# [4] = system: Mycobacterium tuberculosis; experiment: Antimycobacterial activity against Mycobacterium tuberculosis Erdman infected in BALB/c mouse assessed as reduction of bacterial load at 200 mg/kg, po qd for 5 days per week administered 60 days after infection measured after 85 days post infection; format: functional, organism-based; set-up: dose 200 mg/kg
# [5] = system: Mycobacterium tuberculosis; experiment: Antimycobacterial activity against Mycobacterium tuberculosis H37Rv ATCC 27294 incubated 10 days under anaerobic condition measured after 24 hrs recovery in air by luciferase based low oxygen recovery assay; format: functional
# [6] = system: Mycolicibacterium aurum; experiment: Antimycobacterial activity against Mycobacterium aurum SB 66; format: functional, organism-based
# [7] = system: Mycolicibacterium vaccae; experiment: Antimycobacterial activity against Mycobacterium vaccae 10670 by agar diffusion assay; format: functional, organism-based
# [8] = system: Sporobolomyces salmonicolor; experiment: Antimicrobial activity against Sporobolomyces salmonicolor SBUG 549; format: functional, organism-based
# [9] = system: Staphylococcus aureus; experiment: Antibacterial activity against Staphylococcus aureus SG 511; format: functional, organism-based
# [10] = system: Bacillus subtilis; experiment: Antibacterial activity against Bacillus subtilis ATCC 6633; format: functional, organism-based
# [11] = system: Mycolicibacterium fortuitum; experiment: Antimycobacterial activity against Mycobacterium fortuitum B by agar diffusion assay; format: functional, organism-based
# [12] = system: Escherichia coli; experiment: Antibacterial activity against Escherichia coli SG 458; format: functional, organism-based
# [13] = system: Mycobacterium avium; experiment: Antimycobacterial activity against Mycobacterium avium MAC 108; format: functional, organism-based
# [14] = system: Mycobacterium avium; experiment: Antimycobacterial activity against Mycobacterium avium MAC 101; format: functional, organism-based
# [15] = system: Mycobacterium avium; experiment: Antimycobacterial activity against Mycobacterium avium MAC 109; format: functional, organism-based
# [16] = system: Mycolicibacterium vaccae; experiment: Antimycobacterial activity against Mycobacterium vaccae 10670; format: functional, organism-based
# [17] = system: Micrococcus luteus; experiment: Antibacterial activity against Micrococcus luteus ATCC 10240; format: functional, organism-based
# [18] = system: Mycolicibacterium aurum; experiment: Antimycobacterial activity against Mycobacterium aurum DSM 43536; format: functional, organism-based
# [19] = system: Mycobacterium avium; experiment: Antimycobacterial activity against Mycobacterium avium MAC 100; format: functional, organism-based
# [20] = system: Colletotrichum; experiment: Antifungal activity against Glomerella; format: functional, organism-based
# [21] = system: Mus musculus; experiment: Toxicity in mouse assessed as behavioral change at 100 mg/kg, po qd for 5 days followed by 2 days rest and 200 mg/kg, po qd for 5 days; format: organism-based; conditions: in vivo
# [22] = system: Proteus vulgaris; experiment: Antibacterial activity against Proteus vulgaris OX 19; format: functional, organism-based
# [23] = system: Mycolicibacterium smegmatis; experiment: Antimycobacterial activity against Mycobacterium smegmatis SG 987; format: functional, organism-based
# [24] = system: Mycobacterium avium; experiment: Antimycobacterial activity against Mycobacterium avium MAC 116; format: functional, organism-based
# [25] = system: Mus musculus; experiment: Toxicity in mouse assessed as change in body weight at 100 mg/kg, po qd for 5 days followed by 2 days rest and 200 mg/kg, po qd for 5 days; format: organism-based; conditions: in vivo
# [26] = system: Candida albicans; experiment: Antifungal activity against Candida albicans; format: functional, organism-based
# [27] = system: Liver microsomes; experiment: Metabolic stability in Sprague-Dawley rat microsomes assessed as compound remaining after 15 mins by HPLC analysis; format: ADME, Microsome; conditions: 0.25 h
# [28] = system: Mus musculus; experiment: Toxicity in mouse assessed as change in gross appearance at 100 mg/kg, po qd for 5 days followed by 2 days rest and 200 mg/kg, po qd for 5 days; format: organism-based; conditions: in vivo
# [29] = system: Mycolicibacterium fortuitum; experiment: Antimycobacterial activity against Mycobacterium fortuitum B; format: functional, organism-based
# [30] = Chemical stability in simulated gastric fluid assessed as compound remaining after 2 hrs by HPLC analysis; format: physicochemical; conditions: simulated gi fluid
smiles,measurement,setting,value
Cc1oc(-c2ccccc2OCc2ccccc2)nc1C(=O)OCc1ccccc1,MIC,[1],> 128 µM
same,IC50,[2],110 µM
same,MIC,[3],28.3 µM
same,Activity,[4],inactive
O=C(OCc1ccccc1)c1coc(-c2cncc(Br)c2)n1,MIC,[1],2.24 µM
same,IC50,[2],> 128 µM
same,MIC,[3],2.37 µM
same,Activity,[4],inactive
same,MIC,[5],> 128 µM
Cc1oc(-c2ccc(F)cc2[N+](=O)[O-])nc1C(=O)OCc1ccccc1,MIC,[1],4.62 µM
same,IC50,[2],> 128 µM
same,MIC,[3],15 µM
same,Activity,[4],inactive
same,MIC,[5],> 128 µM
O=C(OCc1ccccc1)[C@@H]1COC(c2ccc(OCc3ccccc3)c(F)c2)=N1,MIC,[1],1.42 µM
same,IC50,[2],> 128 µM
same,MIC,[3],0.77 µM
same,Activity,[4],inactive
Cc1oc(-c2ccccc2)nc1C(=O)OCc1ccccc1,MIC,[1],15.2 µM
same,IC50,[2],35 µM
same,MIC,[3],3.92 µM
same,Activity,[4],inactive
same,MIC,[5],> 128 µM
CCOc1ccc(-c2nc(C(=O)OCc3ccccc3)co2)cc1,MIC,[1],1.97 µM
same,IC50,[2],> 128 µM
same,MIC,[3],15.5 µM
same,Activity,[4],inactive
same,MIC,[5],29.7 µM
COc1ccc(-c2nc(C(=O)OCc3ccccc3)co2)cc1Cl,MIC,[1],5.33 µM
same,IC50,[2],> 128 µM
same,MIC,[3],2.35 µM
same,Activity,[4],inactive
O=C(OCc1ccccc1)c1coc(-c2cncc(-c3ccccc3)c2)n1,MIC,[1],0.98 µM
same,IC50,[2],> 128 µM
same,MIC,[3],1.49 µM
same,Activity,[4],inactive
COc1ccc(C2=N[C@H](C(=O)OCc3ccccc3)CO2)cc1,MIC,[1],2.29 µM
same,IC50,[2],> 128 µM
same,MIC,[3],26.1 µM
same,Activity,[4],inactive
O=C(OCc1ccccc1)[C@@H]1COC(c2cccc(Cl)c2)=N1,MIC,[1],1.8 µM
same,IC50,[2],> 128 µM
same,MIC,[3],11.6 µM
same,Activity,[4],inactive
O=C(OCc1ccccc1)c1coc(-c2ccc([N+](=O)[O-])c(F)c2)n1,MIC,[1],2.66 µM
same,IC50,[2],> 128 µM
same,MIC,[3],35.4 µM
same,Activity,[4],inactive
O=C(OCc1ccccc1)c1coc(-c2ccccc2OCc2ccccc2)n1,Activity,[6],inactive
same,Activity,[7],Active
same,Activity,[8],inactive
same,Activity,[9],inactive
same,MIC,[1],10.3 µM
same,Activity,[10],inactive
same,Activity,[11],Active
same,Activity,[12],inactive
same,Activity,[13],inactive
same,IC50,[2],> 128 µM
same,Activity,[14],inactive
same,Activity,[15],inactive
same,Activity,[16],inactive
same,Activity,[17],inactive
same,Activity,[18],inactive
same,Activity,[19],inactive
same,Activity,[20],inactive
same,Activity,[21],Non-toxic
same,Activity,[22],inactive
same,Activity,[23],inactive
same,Activity,[24],inactive
same,Activity,[25],Non-toxic
same,Activity,[26],inactive
same,Stability,[27],13%
same,Activity,[28],Non-toxic
same,Activity,[29],inactive
same,MIC,[3],62.6 µM
same,Stability,[30],4.2%
same,Activity,[4],inactive
COc1ccc(-c2nc(C(=O)OCc3ccccc3)co2)cc1F,MIC,[1],6.99 µM
same,IC50,[2],> 128 µM
same,MIC,[3],5.55 µM
same,Activity,[4],inactive
O=C(OCc1ccccc1)c1coc(-c2ccc(Br)nc2)n1,MIC,[1],1.84 µM
same,IC50,[2],> 128 µM
same,MIC,[3],2.54 µM
same,Activity,[4],inactive
same,MIC,[5],25.1 µM
O=C(OCc1ccccc1)c1coc(-c2cccc(F)c2)n1,MIC,[1],1.42 µM
same,IC50,[2],> 128 µM
same,MIC,[3],0.91 µM
same,Activity,[4],inactive
O=C(OCc1ccccc1)c1coc(-c2ccc(F)cc2[N+](=O)[O-])n1,MIC,[1],9.9 µM
same,IC50,[2],> 128 µM
same,MIC,[3],2.4 µM
same,Activity,[4],inactive
O=C(OCc1ccccc1)c1coc(-c2ccc(Cl)cc2)n1,MIC,[1],7.77 µM
same,IC50,[2],> 128 µM
same,MIC,[3],18.9 µM
same,Activity,[4],inactive
same,MIC,[5],56.2 µM
O=C(OCc1ccccc1)[C@@H]1COC(c2ccc([N+](=O)[O-])c(F)c2)=N1,MIC,[1],3.68 µM
same,IC50,[2],> 128 µM
same,MIC,[3],30.2 µM
same,Activity,[4],inactive
same,MIC,[5],59 µM
Nc1ccc(-c2nc(C(=O)OCc3ccccc3)co2)cc1,MIC,[1],3.67 µM
same,IC50,[2],> 128 µM
same,MIC,[3],1.98 µM
same,Activity,[4],inactive
same,MIC,[5],68.6 µM
O=C(OCc1ccccc1)[C@@H]1COC(c2cccc(F)c2)=N1,MIC,[1],6.86 µM
same,MIC,[3],60.7 µM
same,Activity,[4],inactive
O=C(OCc1ccccc1)[C@@H]1COC(c2cncc(Br)c2)=N1,MIC,[1],26.6 µM
same,MIC,[3],27.6 µM
same,Activity,[4],inactive
COc1ccc(-c2nc(C(=O)OCc3ccccc3)co2)cc1OC,MIC,[1],17.5 µM
same,MIC,[3],16 µM
same,Activity,[4],inactive
O=C(OCc1ccccc1)c1coc(-c2cccc(Cl)c2)n1,MIC,[1],0.99 µM
same,IC50,[2],> 128 µM
same,MIC,[3],1.25 µM
same,Activity,[4],inactive
Cc1oc(-c2ccccc2)nc1C(=O)O,MIC,[1],> 128 µM
same,MIC,[3],> 128 µM
same,Activity,[4],inactive
Nc1ccc(C2=N[C@H](C(=O)OCc3ccccc3)CO2)cc1,MIC,[1],26.8 µM
same,MIC,[3],25.4 µM
same,Activity,[4],inactive
C[C@@H]1OC(c2ccc(F)cc2[N+](=O)[O-])=N[C@@H]1C(=O)OCc1ccccc1,MIC,[1],4.11 µM
same,IC50,[2],38.1 µM
same,MIC,[3],12.5 µM
same,Activity,[4],inactive
O=C(OCc1ccccc1)[C@@H]1COC(c2ccc([N+](=O)[O-])cc2OCc2ccccc2)=N1,MIC,[1],4.86 µM
same,MIC,[3],15.6 µM
same,Activity,[4],inactive
N#Cc1cccc(C2=N[C@H](C(=O)OCc3ccccc3)CO2)c1,MIC,[1],75.1 µM
same,MIC,[3],47.2 µM
same,Activity,[4],inactive
O=C(OCc1ccccc1)[C@@H]1COC(c2ccc(F)cc2[N+](=O)[O-])=N1,MIC,[1],40.4 µM
same,MIC,[3],30.7 µM
same,Activity,[4],inactive
COc1ccc(-c2nc(C(=O)OCc3ccccc3)c(C)o2)cc1,MIC,[1],15.8 µM
same,MIC,[3],47.4 µM
same,Activity,[4],inactive
COC(=O)[C@@H]1COC(c2cccc(Cl)c2)=N1,MIC,[1],68.7 µM
same,MIC,[3],> 128 µM
same,Activity,[4],inactive
CC(C)Oc1ccc(-c2nc(C(=O)OCc3ccccc3)co2)cc1,MIC,[1],3.21 µM
same,MIC,[3],1.95 µM
same,Activity,[4],inactive
O=C(OCc1ccccc1)[C@@H]1COC(c2ccc([N+](=O)[O-])cc2)=N1,MIC,[1],7.59 µM
same,IC50,[2],> 128 µM
same,MIC,[3],30.6 µM
same,Activity,[4],inactive
COc1ccc(CNC(=O)c2coc(-c3ccc([N+](=O)[O-])cc3)n2)cc1OC,MIC,[1],49.5 µM
same,IC50,[2],> 128 µM
same,MIC,[3],35.8 µM
same,Activity,[4],inactive
O=C(O)[C@@H]1COC(c2ccccc2O)=N1,MIC,[1],> 128 µM
same,MIC,[3],> 128 µM
same,Activity,[4],inactive
COc1ccccc1C1=N[C@H](C(=O)OCc2ccccc2)CO1,MIC,[1],29.2 µM
same,MIC,[3],37 µM
same,Activity,[4],inactive
O=C(OCc1ccccc1)[C@@H]1COC(c2cccnc2Sc2ccccc2)=N1,MIC,[1],13.4 µM
same,MIC,[3],17.8 µM
same,Activity,[4],inactive
COc1cccc(-c2nc(C(=O)OCc3ccccc3)co2)c1,MIC,[1],3.76 µM
same,MIC,[3],6.04 µM
same,Activity,[4],inactive
COc1ccc(C2=N[C@H](C(=O)OCc3ccccc3)[C@H](C)O2)cc1,MIC,[1],37.8 µM
same,MIC,[3],54.1 µM
same,Activity,[4],inactive
O=C(OCc1ccccc1)c1coc(-c2ccc([N+](=O)[O-])cc2F)n1,MIC,[1],1.65 µM
same,IC50,[2],> 128 µM
same,MIC,[3],0.7 µM
same,Activity,[4],inactive
same,MIC,[5],11.6 µM
O=C(OCc1ccccc1)[C@@H]1COC(c2cccc(Cl)c2OCc2ccccc2)=N1,MIC,[1],34 µM
same,MIC,[3],6.3 µM
same,Activity,[4],inactive
CCCOc1ccc(C2=N[C@H](C(=O)OCc3ccccc3)CO2)cc1,MIC,[1],22.4 µM
same,MIC,[3],2.97 µM
same,Activity,[4],inactive
O=C(OCc1ccccc1)c1coc(-c2cccc(Cl)c2OCc2ccccc2)n1,MIC,[1],> 128 µM
same,MIC,[3],5.4 µM
same,Activity,[4],inactive
